Like-named read-outs stand apart in the source and are kept apart here.
Columns and labels:
[1] = test system: heart rate; test: Heart rate of the un-anesthetised dog, oral; type: in vivo, Beagle dog
[2] = Acute toxicity in the mouse, intravenous; conditions: in vivo
Text: These two compounds were the subject of an acute toxicity study in the mouse.
The two compounds had similar toxicity and the pharmacological study was able, indifferently, to be carried out with one or the other, the results being, in the two cases, expressed by weight of base per kg of body weight for the in vivo tests and in molar concentration for the in vitro tests.

[3] = test system: heart rate; test: β-stimulant specificity: heart rate of the anesthetised dog, antagonism of compound A tachycardia by acebutolol; type: in vivo
Text: The results below are the averages of the values obtained in 3 dogs.

[4] = T1 + 1 min after acebutolol 0.5 mg/kg i.v., following compound A perfusion
[5] = T1 + 5 min after acebutolol 0.5 mg/kg i.v.
[6] = T1 + 15 min after acebutolol 0.5 mg/kg i.v.
[7] = T1 + 30 min (printed T i) after acebutolol 0.5 mg/kg i.v.
[8] = T1 + 1 h after acebutolol 0.5 mg/kg i.v.
[9] = T1 + 4 h after acebutolol 0.5 mg/kg i.v.

With `COc1cc(C(O)CNC(C)CCn2cnc3ccccc32)ccc1O.Cl.Cl.O.O` (centres unmarked) [Compound B, 1-[1-benzimidazolyl]-N-[2-(4-hydroxy-3-methoxy-phenyl)-2-hydroxy-ethyl]-3-amino-butane dihydrochloride, dihydrate] as the compound, how does the “Heart rate, average” value ([1]; 22 μg base/kg, 15 min, time 0: 94, 12 dogs) read?
The value was 130.

And the “Heart rate, average” value ([1]; 22 μg base/kg, 30 min, time 0: 94)?
The value was 129.

And the “Heart rate, average” value ([1]; 22 μg base/kg, 1 h, time 0: 94)?
Its value is 129.

And the “Heart rate, average” value ([1]; 22 μg base/kg, 2 h, time 0: 94)?
Its value is 119.

And the “Heart rate, average” value ([1]; 22 μg base/kg, 3 h, time 0: 94)?
The value was 109.

And the “Heart rate, average” value ([1]; 22 μg base/kg, 4 h, time 0: 94)?
The value was 104.

And the “Heart rate, average” value ([1]; 22 μg base/kg, 5 h, time 0: 94)?
The value was 102.

And the “Heart rate, average” value ([1]; 72 μg base/kg, 15 min, time 0: 90, 12 dogs)?
The value was 147.

And the “Heart rate, average” value ([1]; 72 μg base/kg, 30 min, time 0: 90)?
Its value is 162.

And the “Heart rate, average” value ([1]; 72 μg base/kg, 1 h, time 0: 90)?
Its value is 162.

What about the “Heart rate, average” value ([1]; 72 μg base/kg, 2 h, time 0: 90) of the same compound?
The value was 160.

And the “Heart rate, average” value ([1]; 72 μg base/kg, 3 h, time 0: 90)?
Its value is 146.

What about the “Heart rate, average” value ([1]; 72 μg base/kg, 4 h, time 0: 90) of the same compound?
The value was 132.

What about the “Heart rate, average” value ([1]; 72 μg base/kg, 5 h, time 0: 90) of the same compound?
The value was 125.

And the “Heart rate, average” value ([1]; 72 μg base/kg, 6 h, time 0: 90)?
Its value is 115.

And the “Heart rate, average” value ([1]; 72 μg base/kg, 7 h, time 0: 90)?
The value was 112.

What about the “Tachycardiac activity (comparison with Salbutamol)” value ([1]; un-anesthetised dog, in words) of the same compound?
The value was “distinctly less tachycardiac than Salbutamol”.

And the LD50 ([2]; as base, confidence limits printed, read-out: LD50 expressed as base)?
The LD50 was 106 mg/kg.

And the LD50 ([2]; by weight of product, confidence limits p=0.05 printed, read-out: LD50)?
Its LD50 is 148 mg/kg.

For `CCCC(=O)Nc1ccc(OCC(O)CNC(C)C)c(C(C)=O)c1` (centres unmarked) [Acebutolol, reference compound], which Heart rate [3, 4] is on record?
Its Heart rate is 162 beats/min.

What about the Heart rate variation [3, 4] of the same compound?
The Heart rate variation was “+5”.

What about the Heart rate [3, 5] of the same compound?
The Heart rate was 156 beats/min.

What about the Heart rate variation [3, 5] of the same compound?
The Heart rate variation was -1.

And the Heart rate [3, 6]?
The Heart rate was 149 beats/min.

And the Heart rate variation [3, 6]?
Its Heart rate variation is -8.

And the Heart rate [3, 7]?
Its Heart rate is 147 beats/min.

What about the Heart rate variation [3, 7] of the same compound?
Its Heart rate variation is -10.

And the Heart rate [3, 8]?
The Heart rate was 154 beats/min.

What about the Heart rate variation [3, 8] of the same compound?
Its Heart rate variation is -3.

And the Heart rate [3, 9]?
Its Heart rate is 143 beats/min.

And the Heart rate variation [3, 9]?
Its Heart rate variation is -14.

And the “Antagonism of the tachycardia caused by compound A” value ([3]; acebutolol 0.5 mg/kg i.v., compound A perfused 6 min at 4.2 μg/kg/min)?
The value was “completely antagonises the tachycardia caused by compound A”.

Reference: patent publication US4513001A, “β-Adrenergic 1-[1-benzimidazolyl]-N-[2-(4-hydroxy-3-methoxy-phenyl)-2-hydroxy-ethyl]- 3-amino butane and salts and hydrates thereof” (priority 1982, dated 1985)
